In publication PMC5148701 (Journal of medicinal chemistry, 2016):
Read-outs that look alike come from different tables or passages of the source.

What was measured:
hD2L receptors = hD2L receptors (Homo sapiens, UniProt P14416); test: D2R Gi/o-mediated cAMP inhibition assay; type: cell-based; settings: for Emax: HEK-293T; for decrease of potency in Gi/o pathway compared to compound 1 / activity in Gi/o signaling (in words): cAMP inhibition assay
D2L receptors = D2L receptors (Homo sapiens, UniProt P14416); test: D2R β-arrestin-2 recruitment Tango assay; type: cell-based; settings: for Emax: HTLA, read-out: β-arrestin Emax (%); for EC50: β-arrestin EC50 (nM), HTLA cells
[1] = read-out: cAMP Emax (%), HEK293T cells, GloSensor-22F, normalized to maximum cAMP inhibition by quinpirole (100%)

Sequence of hD2L receptors (P14416 whole entry): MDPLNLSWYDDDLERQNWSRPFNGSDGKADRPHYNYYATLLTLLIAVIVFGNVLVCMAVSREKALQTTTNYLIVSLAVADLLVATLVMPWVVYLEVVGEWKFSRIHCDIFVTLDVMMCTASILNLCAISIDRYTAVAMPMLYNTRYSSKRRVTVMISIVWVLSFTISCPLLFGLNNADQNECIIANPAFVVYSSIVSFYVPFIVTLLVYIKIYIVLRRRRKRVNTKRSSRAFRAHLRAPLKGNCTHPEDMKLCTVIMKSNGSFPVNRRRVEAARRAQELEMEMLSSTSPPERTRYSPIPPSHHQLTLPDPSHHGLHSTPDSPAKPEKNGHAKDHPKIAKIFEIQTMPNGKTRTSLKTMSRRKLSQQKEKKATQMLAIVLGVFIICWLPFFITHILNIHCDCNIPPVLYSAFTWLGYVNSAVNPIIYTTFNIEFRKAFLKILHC
Sequence of D2L receptors (P14416 whole entry): as above

SMILES | Emax (D2L receptors) | EC50 (D2L receptors; Tango assay) | Emax (hD2L receptors; read-out: cAMP Emax (%)) | Emax (hD2L receptors; [1]) | also measured
Cc1nc2cc(OCCCN3CCN(c4cccc(Cl)c4Cl)CC3)ccc2s1 [Compound 2, 5-(3-(4-(2,3-Dichlorophenyl)piperazin-1-yl)propoxy)-2-methylbenzo[d]thiazole] |  |  |  |  | D2R agonist profile in β-arrestin and Gi/o pathways (hD2L receptors; compared with β-arrestin recruitment Tango assay): balanced D2R agonist
Cc1nc2ccc(OCCCCN3CCN(c4cccc(Cl)c4Cl)CC3)cc2s1 [Compound 3, 6-(4-(4-(2,3-Dichlorophenyl)piperazin-1-yl)butoxy)-2-methylbenzo[d]thiazole] | 22% | 76 nM | 42% |  | decrease of potency in β-arrestin recruitment compared to compound 1 (D2L receptors; Tango assay): 5 fold; decrease of potency in Gi/o pathway compared to compound 1 (hD2L receptors): 2 fold
Clc1nc2cc(OCCCCN3CCN(c4cccc(Cl)c4Cl)CC3)ccc2s1 [Compound 6, 2-Chloro-5-(4-(4-(2,3-dichlorophenyl)piperazin-1-yl)butoxy)benzo[d]thiazole] | 40% | 48 nM |  | 50% | 
O=c1[nH]c2cc(OCCCCN3CCN(c4cccc(Cl)c4Cl)CC3)ccc2s1 [Compound 7, 5-(4-(4-(2,3-Dichlorophenyl)piperazin-1-yl)butoxy)benzo[d]thiazol-2(3H)-one] | 59% | 2.6 nM | 67% |  | 
FC(F)(F)c1nc2cc(OCCCCN3CCN(c4cccc(Cl)c4Cl)CC3)ccc2s1 [Compound 11, 5-(4-(4-(2,3-Dichlorophenyl)piperazin-1-yl)butoxy)-2-(trifluoromethyl)benzo[d]thiazole] | 40% |  |  |  | 
CCc1nc2cc(OCCCCN3CCN(c4cccc(Cl)c4Cl)CC3)ccc2s1 [Compound 18, 5-(4-(4-(2,3-Dichlorophenyl)piperazin-1-yl)butoxy)-2-ethylbenzo[d]thiazole] | < 20% |  |  | 43% | 
CC(C)c1nc2cc(OCCCCN3CCN(c4cccc(Cl)c4Cl)CC3)ccc2s1 [Compound 19, 5-(4-(4-(2,3-Dichlorophenyl)piperazin-1-yl)butoxy)-2-isopropylbenzo[d]thiazole] | < 20% |  |  | 33% | 
CN(C)c1nc2cc(OCCCCN3CCN(c4cccc(Cl)c4Cl)CC3)ccc2s1 [Compound 25, 5-(4-(4-(2,3-Dichlorophenyl)piperazin-1-yl)butoxy)-N,N-dimethylbenzo[d]thiazol-2-amine] |  |  |  |  | activity in β-arrestin recruitment (in words) (D2L receptors; Tango assay): did not show any activity; activity in Gi/o signaling (in words) (hD2L receptors): did not show any activity
Cc1nc2cc(OCCCCN3CCC(c4cccc(Cl)c4Cl)CC3)ccc2s1 [Compound 30, 5-(4-(4-(2,3-Dichlorophenyl)piperidin-1-yl)butoxy)-2-methylbenzo[d]thiazole] | 31% | 49 nM | 66% |  | 
Cc1nc2cc(OCCCCN3CCCN(c4cccc(Cl)c4Cl)CC3)ccc2s1 [Compound 31, 5-(4-(4-(2,3-Dichlorophenyl)-1,4-diazepan-1-yl)butoxy)-2-methylbenzo[d]thiazole] | < 20% |  | 22% |  | activity in β-arrestin recruitment (in words) (D2L receptors; Tango assay): inactive
COc1ccccc1N1CCN(CCCCOc2ccc3sc(C)nc3c2)CC1 [Compound 32, 5-(4-(4-(2-Methoxyphenyl)piperazin-1-yl)butoxy)-2-methylbenzo[d]thiazole] | 25% | 8.5 nM | 61% |  | decrease of potency in Gi/o pathway compared to compound 1 (hD2L receptors): around 5 fold
Cc1nc2cc(OCCCCN3CCN(c4cccc(Cl)c4Cl)[C@@H](C)C3)ccc2s1 [Compound 34, (S)-5-(4-(4-(2,3-Dichlorophenyl)-3-methylpiperazin-1-yl)butoxy)-2-methylbenzo[d]thiazole] |  |  |  |  | activity in β-arrestin recruitment (in words) (D2L receptors; Tango assay): no appreciable activity; activity in Gi/o signaling (in words) (hD2L receptors): no appreciable activity
Cc1ccc2cccc(N3CCN(CCCCOc4ccc5sc(C)nc5c4)CC3)c2n1 [Compound 36, 2-Methyl-5-(4-(4-(2-methylquinolin-8-yl)piperazin-1-yl)butoxy)benzo[d]thiazole] | < 20% |  | 25% |  | 
Cc1nc2cc(OCCCCN3CCN(c4cccc5c4OCCN5)CC3)ccc2s1 [Compound 39, 8-(4-(4-((2-Methylbenzo[d]thiazol-5-yl)oxy)butyl)piperazin-1-yl)-3,4-dihydro-2H-benzo[b][1,4]oxazine] | < 20% |  | 29% |  | activity in β-arrestin recruitment (in words) (D2L receptors; Tango assay): did not recruit β-arrestin at all
Cc1nc2cc(OCCCCN3CCN(c4cccc5c4OCCO5)CC3)ccc2s1 [Compound 40, 5-(4-(4-(2,3-Dihydrobenzo[b][1,4]dioxin-5-yl)piperazin-1-yl)butoxy)-2-methylbenzo[d]thiazole] |  | 3.6 nM | 50% |  | 
Cc1nc2cc(OCCCCN3CCN(c4cccc(-c5ccccc5)c4C)CC3)ccc2s1 [Compound 44, 2-Methyl-5-(4-(4-(2-methyl-[1,1'-biphenyl]-3-yl)piperazin-1-yl)butoxy)benzo[d]thiazole] |  |  |  |  | activity in β-arrestin recruitment (in words) (D2L receptors; Tango assay): completely inactive; activity in Gi/o signaling (in words) (hD2L receptors): completely inactive
Cc1nc2cc(OCCCCN3CCN(c4cccc5[nH]c(=O)oc45)CC3)ccc2s1 [Compound 45, 7-(4-(4-((2-Methylbenzo[d]thiazol-5-yl)oxy)butyl)piperazin-1-yl)benzo[d]oxazol-2(3H)-one] | 88% | 0.36 nM | 90% |  | 
CC(C)c1nc2cc(OCCCCN3CCC(c4cccc(Cl)c4Cl)CC3)ccc2s1 [Compound 47, 5-(4-(4-(2,3-Dichlorophenyl)piperidin-1-yl)butoxy)-2-isopropylbenzo[d]thiazole] | < 20% |  |  | 33% | 
CCc1nc2cc(OCCCCN3CCN(c4cccc5ccc(C)nc45)CC3)ccc2s1 [Compound 48, 2-Ethyl-5-(4-(4-(2-methylquinolin-8-yl)piperazin-1-yl)butoxy)benzo[d]thiazole] | < 20% |  |  | 33% | 
CCc1nc2cc(OCCCCN3CCN(c4cccc5c4OCCN5)CC3)ccc2s1 [Compound 50, 8-(4-(4-((2-Ethylbenzo[d]thiazol-5-yl)oxy)butyl)piperazin-1-yl)-3,4-dihydro-2H-benzo[b][1,4]oxazine] | 33% | 6.4 nM |  |  | 
CC(C)c1nc2cc(OCCCCN3CCN(c4cccc5c4OCCN5)CC3)ccc2s1 [Compound 51, 8-(4-(4-((2-Isopropylbenzo[d]thiazol-5-yl)oxy)butyl)piperazin-1-yl)-3,4-dihydro-2H-benzo[b][1,4]oxazine] |  |  |  | 48% | 
CCc1nc2cc(OCCCCN3CCN(c4cccc5c4OCCO5)CC3)ccc2s1 [Compound 52, 5-(4-(4-(2,3-Dihydrobenzo[b][1,4]dioxin-5-yl)piperazin-1-yl)butoxy)-2-ethylbenzo[d]thiazole] |  |  |  |  | activity in β-arrestin recruitment (in words) (D2L receptors; Tango assay): inactive; activity in Gi/o signaling (in words) (hD2L receptors): inactive
CNc1nc2cc(OCCCCN3CCN(c4cccc5c4OCCN5)CC3)ccc2s1 [Compound 56, 5-(4-(4-(3,4-Dihydro-2H-benzo[b][1,4]oxazin-8-yl)piperazin-1-yl)butoxy)-N-methylbenzo[d]thiazol-2-amine] | 29% | 6.5 nM |  | 49% | 
CNc1nc2cc(OCCCCN3CCN(c4cccc5c4OCCO5)CC3)ccc2s1 [Compound 57, 5-(4-(4-(2,3-Dihydrobenzo[b][1,4]dioxin-5-yl)piperazin-1-yl)butoxy)-N-methylbenzo[d]thiazol-2-amine] |  |  |  |  | activity in β-arrestin recruitment (in words) (D2L receptors; Tango assay): inactive; activity in Gi/o signaling (in words) (hD2L receptors): inactive
Cc1nc2ccc(OCCCCN3CCC(c4cccc(Cl)c4Cl)CC3)cc2s1 [Compound 58, 6-(4-(4-(2,3-Dichlorophenyl)piperidin-1-yl)butoxy)-2-methylbenzo[d]thiazole] | 24% | 460 nM |  | 56% | 
